In US20230031406A1, “COMPOUNDS AND COMPOSITIONS FOR TREATING CONDITIONS ASSOCIATED WITH NLRP ACTIVITY” (Novartis AG, priority 2018, published 2023):
pIC50: −log10 of the molar value.

The compounds below were run on PMA-differentiated THP-1 cells (assay: IL-1β production in PMA-differentiated THP-1 cells stimulated with gramicidin (hTHP-1 assay containing 2% fetal bovine serum; Procedures 1 and 2)). Settings: Homo sapiens, THP-1, Table B2; 2% fetal bovine serum; class symbols; read-out: hTHP-1 IC50.
Format: cell-based, human
In short: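 IL-1β release from PMA-differentiated THP-1 macrophage-like cells was triggered by 5 μM gramicidin for 2 h after 1 h compound exposure, then measured by HTRF.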

Compared with `Cc1c(C(F)(F)F)nc2c(c1NC(=O)N=S(N)(=O)c1cnn(C(F)F)c1)CCC2` (stereo not drawn) [Compound 617, 1-(Difluoromethyl)-N′-((3-methyl-2-(trifluoromethyl)-6,7-dihydro-5H-cyclopenta[b]pyridin-4-yl)carbamoyl)-1H-pyrazole-4-sulfonimidamide], `Cc1c(C(F)(F)F)nc2c(c1NC(=O)N=S(N)(=O)c1ccn(C(F)F)n1)CCC2` (stereo not drawn) [Compound 621, 1-(Difluoromethyl)-N′-((3-methyl-2-(trifluoromethyl)-6,7-dihydro-5H-cyclopenta[b]pyridin-4-yl)carbamoyl)-1H-pyrazole-3-sulfonimidamide] is higher in pIC50: 4.52 to 5.30 for the first, 5.30 to 6.00 for the second. The second is the more potent here.

First: Cc1nc2c(c(NC(=O)N=S(N)(=O)c3ncc(C(C)(C)O)s3)c1C1CC1)CCC2 (stereo not drawn) [Compound 618, N′-((3-cyclopropyl-2-methyl-6,7-dihydro-5H-cyclopenta[b]pyridin-4-yl)carbamoyl)-5-(2-hydroxypropan-2-yl)thiazole-2-sulfonimidamide]
Second: Cc1nc2c(c(NC(=O)N=S(N)(=O)c3cc(C(C)(C)O)cs3)c1C1CC1)CCC2 (stereo not drawn) [Compound 623, N′-((3-cyclopropyl-2-methyl-6,7-dihydro-5H-cyclopenta[b]pyridin-4-yl)carbamoyl)-4-(2-hydroxypropan-2-yl)thiophene-2-sulfonimidamide]
The pIC50 of the first is lower: 5.30 to 6.00 for the first, 6.00 to 6.70 for the second. The second is the more potent here.

First: Cc1c(CO)nc2c(c1NC(=O)N=S(N)(=O)c1cnc(C(C)(C)O)s1)CCC2 (stereo not drawn) [Compound 619, N-((2-(hydroxymethyl)-3-methyl-6,7-dihydro-5H-cyclopenta[b]pyridin-4-yl)carbamoyl)-2-(2-hydroxypropan-2-yl)thiazole-5-sulfonimidamide]
Second: Cc1c(C(F)F)nc2c(c1NC(=O)N=S(N)(=O)c1cnc(C(C)(C)O)s1)CCC2 (stereo not drawn) [Compound 647, N′-((2-(difluoromethyl)-3-methyl-6,7-dihydro-5H-cyclopenta[b]pyridin-4-yl)carbamoyl)-2-(2-hydroxypropan-2-yl)thiazole-5-sulfonimidamide]
The pIC50 of the first is lower: 4.52 to 5.30 for the first, 5.30 to 6.00 for the second.

First: CC(C)(O)c1ccnc(S(N)(=O)=NC(=O)Nc2c3c(nc4c2CCC4(C)C)CCC3)c1 (stereo not drawn) [Compound 620, N′-((3,3-dimethyl-1,2,3,5,6,7-hexahydrodicyclopenta[b,e]pyridin-8-yl)carbamoyl)-4-(2-hydroxypropan-2-yl)pyridine-2-sulfonimidamide]
Second: CC(C)(O)c1sc(S(N)(=O)=NC(=O)Nc2c3c(nc4c2CCC4(C)C)CCC3)nc1CO (stereo not drawn) [Compound 642, N′-((3,3-dimethyl-1,2,3,5,6,7-hexahydrodicyclopenta[b,e]pyridin-8-yl)carbamoyl)-4-(hydroxymethyl)-5-(2-hydroxypropan-2-yl)thiazole-2-sulfonimidamide]
The pIC50 of the first is lower: 4.52 to 5.30 for the first, 6.70 to 7.40 for the second. The second is the more potent here.

First: Cc1nc2c(c(NC(=O)N=S(N)(=O)c3cc(C(C)(C)O)cs3)c1C(C)C)CCC2 (stereo not drawn) [Compound 622, 4-(2-Hydroxypropan-2-yl)-N′-((3-isopropyl-2-methyl-6,7-dihydro-5H-cyclopenta[b]pyridin-4-yl)carbamoyl)thiophene-2-sulfonimidamide]
Second: Cc1c(C(F)(F)F)nc2c(c1NC(=O)N=S(N)(=O)c1cc(C(C)(C)O)cs1)CCC2 (stereo not drawn) [Compound 624, 4-(2-Hydroxypropan-2-yl)-N′-((3-methyl-2-(trifluoromethyl)-6,7-dihydro-5H-cyclopenta[b]pyridin-4-yl)carbamoyl)thiophene-2-sulfonimidamide]
The pIC50 of the first is lower: 4.52 to 5.30 for the first, 6.70 to 7.40 for the second.

`CC(C)(O)c1cccc(S(N)(=O)=NC(=O)Nc2c3c(nc4c2CCC4)CCC3)c1` (stereo not drawn) [Compound 625, N′-((1,2,3,5,6,7-hexahydrodicyclopenta[b,e]pyridin-8-yl)carbamoyl)-3-(2-hydroxypropan-2-yl)benzenesulfonimidamide] and `Cc1c(C2CCC2)nc2c(c1NC(=O)N=S(N)(=O)c1cnc(C(C)(C)O)s1)CCC2` (stereo not drawn) [Compound 649, N′-((2-cyclobutyl-3-methyl-6,7-dihydo-5H-cyclopenta[b]pyridin-4-yl)carbamoyl)-2-(2-hydroxypropan-2-yl)thiazole-5-sulfonimidamide] fall in the same range of pIC50: 4.52 to 5.30 for the first, 4.52 to 5.30 for the second.

First: Cc1c(C2CC2)nc2c(c1NC(=O)N=S(N)(=O)c1nc(C(C)(C)O)cs1)CCC2 (stereo not drawn) [Compound 626, N′-((2-cyclopropyl-3-methyl-6,7-dihydro-5H-cyclopenta[b]pyridin-4-yl)carbamoyl)-4-(2-hydroxypropan-2-yl)thiazole-2-sulfonimidamide]
Second: CCc1nc2c(c(NC(=O)N=S(N)(=O)c3cnc(C(C)(C)O)s3)c1C1CC1)CCC2 (stereo not drawn) [Compound 630, N′-((3-cyclopropyl-2-ethyl-6,7-dihydro-5H-cyclopenta[b]pyridin-4-yl)carbamoyl)-2-(2-hydroxypropan-2-yl)thiazole-5-sulfonimidamide]
The pIC50 of the first is higher: 6.70 to 7.40 for the first, 6.00 to 6.70 for the second.

Compared with `Cc1nc2c(c(NC(=O)N=S(N)(=O)c3cnc(C(C)(O)CO)s3)c1C(C)C)CCC2` (stereo not drawn) [Compound 627, 2-(1,2-Dihydroxypropan-2-yl)-N′-((3-isopropyl-2-methyl-6,7-dihydro-5H-cyclopenta[b]pyridin-4-yl)carbamoyl)thiazole-5-sulfonimidamide], `Cc1c(C2(C)CC2)nc2c(c1NC(=O)N=S(N)(=O)c1cnc(C(C)(C)O)s1)CCC2` (stereo not drawn) [Compound 641, 2-(2-Hydroxypropan-2-yl)-N′-((3-methyl-2-(1-methylcyclopropyl)-6,7-dihydro-5H-cyclopenta[b]pyridin-4-yl)carbamoyl)thiazole-5-sulfonimidamide] is lower in pIC50: 6.00 to 6.70 for the first, 4.52 to 5.30 for the second.

`Cc1c(C(F)(F)F)nc2c(c1NC(=O)N=S(N)(=O)c1ccn(C(C)C)n1)CCC2` (stereo not drawn) [Compound 628, 1-Isopropyl-N′-((3-methyl-2-(trifluoromethyl)-6,7-dihydro-5H-cyclopenta[b]pyridin-4-yl)carbamoyl)-1H-pyrazole-3-sulfonimidamide] and `Cc1c(C(F)(F)F)nc2c(c1NC(=O)N=S(N)(=O)c1sc(C(C)(C)O)cc1F)CCC2` (stereo not drawn) [Compound 632, 3-Fluoro-5-(2-hydroxypropan-2-yl)-N′-((3-methyl-2-(trifluoromethyl)-6,7-dihydro-5H-cyclopenta[b]pyridin-4-yl)carbamoyl)thiophene-2-sulfonimidamide] fall in the same range of pIC50: 6.00 to 6.70 for the first, 6.00 to 6.70 for the second.

First: CCc1nc2c(c(NC(=O)N=S(N)(=O)c3ccn(C(F)F)n3)c1C1CC1)CCC2 (stereo not drawn) [Compound 629, N′-((3-cyclopropyl-2-ethyl-6,7-dihydro-5H-cyclopenta[b]pyridin-4-yl)carbamoyl)-1-(difluoromethyl)-1H-pyrazole-3-sulfonimidamide]
Second: CCc1nc2c(c(NC(=O)N=S(N)(=O)c3sc(C(C)(C)O)cc3F)c1C1CC1)CCC2 (stereo not drawn) [Compound 631, N′-((3-cyclopropyl-2-ethyl-6,7-dihydro-5H-cyclopenta[b]pyridin-4-yl)carbamoyl)-3-fluoro-5-(2-hydroxypropan-2-yl)thiophene-2-sulfonimidamide]
The pIC50 of the first is lower: 5.30 to 6.00 for the first, 6.70 to 7.40 for the second.

First: CCn1ccc(S(N)(=O)=NC(=O)Nc2c3c(nc4c2CC[C@H]4C)CCC3)n1 (stereo partly drawn) [Compound 634, 1-Ethyl-N′-(((R)-3-methyl-1,2,3,5,6,7-hexahydrodicyclopenta[b,e]pyridin-8-yl)carbamoyl)-1H-pyrazole-3-sulfonimidamide]
Second: C[C@@H]1CCc2c1nc1c(c2NC(=O)N=S(N)(=O)c2ccn(C)n2)CCC1 (stereo partly drawn) [Compound 639, 1-Methyl-N′-(((R)-3-methyl-1,2,3,5,6,7-hexahydrodicyclopenta[b,e]pyridin-8-yl)carbamoyl)-1H-pyrazole-3-sulfonimidamide]
The pIC50 of the first is higher: 6.70 to 7.40 for the first, 5.30 to 6.00 for the second.

First: C[C@@H]1CCc2c1nc1c(c2NC(=O)N=S(N)(=O)c2sc(CN(C)C)cc2F)CCC1 (stereo partly drawn) [Compound 636c, 5-((Dimethylamino)methyl)-3-fluoro-N′-(((R)-3-methyl-1,2,3,5,6,7-hexahydrodicyclopenta[b,e]pyridin-8-yl)carbamoyl)thiophene-2-sulfonimidamide]
Second: Cc1c(C(C)C)nc2c(c1NC(=O)N=S(N)(=O)c1sc(C(C)(C)O)cc1F)CCC2 (stereo not drawn) [Compound 645, 3 -Fluoro-5-(2-hydroxypropan-2-yl)-N′-((2-isopropyl-3-methyl-6,7-dihydro-5H-cyclopenta[b]pyridin-4-yl)carbamoyl)thiophene-2-sulfonimidamide]
The pIC50 of the first is lower: 6.00 to 6.70 for the first, 6.70 to 7.40 for the second.

`CC1(C)CCc2c1nc1c(c2NC(=O)N=S(N)(=O)c2cnn(C(F)F)c2)CCC1` (stereo not drawn) [Compound 637, 1-(Difluoromethyl)-N′-((3,3-dimethyl-1,2,3,5,6,7-hexahydrodicyclopenta[b,e]pyridin-8-yl)carbamoyl)-1H-pyrazole-4-sulfonimidamide] and `NS(=O)(=NC(=O)Nc1c2c(nc3c1CCC31CC1)CCC2)c1cnn(C(F)F)c1` (stereo not drawn) [Compound 638, 1-(Difluoromethyl)-N′-((1′,5′,6′,7′-tetrahydro-2′H-spiro[cyclopropane-1,3′-dicyclopenta[b,e]pyridin]-8′-yl)carbamoyl)-1H-pyrazole-4-sulfonimidamide] fall in the same range of pIC50: 4.52 to 5.30 for the first, 4.52 to 5.30 for the second.

`C[C@@H]1CCc2c1nc1c(c2NC(=O)N=S(N)(=O)c2ccn(-c3ccccc3)n2)CCC1` (stereo partly drawn) [Compound 646a] and `COC(C)(C)c1nc(CO)c(S(N)(=O)=NC(=O)Nc2c3c(nc4c2CCC4(C)C)CCC3)s1` (stereo not drawn) [Compound 648, N′-((3,3-dimethyl-1,2,3,5,6,7-hexahydrodicyclopenta[b,e]pyridin-8-yl)carbamoyl)-4-(hydroxymethyl)-2-(2-methoxypropan-2-yl)thiazole-5-sulfonimidamide] fall in the same range of pIC50: 5.30 to 6.00 for the first, 5.30 to 6.00 for the second.

Same assay, conditions: Table B2; 2% fetal bovine serum; class symbols; read-out: hTHP-1 IC50

Compared with `CC1(C)CCc2c1nc1c(c2NC(=O)N=S(N)(=O)c2sc(C(C)(O)CO)cc2F)CCC1` (stereo not drawn) [Compound 640, 5-(1,2-Dihydroxypropan-2-yl)-N′-((3,3-dimethyl-1,2,3,5,6,7-hexahydrodicyclopenta[b,e]pyridin-8-yl)carbamoyl)-3-fluorothiophene-2-sulfonimidamide], `CC(O)c1nc(C(C)(C)O)sc1S(=N)(=O)NC(=O)Nc1c2c(nc3c1CCC3)CCC2` (stereo not drawn) [Compound 643, N-((1,2,3,5,6,7-hexahydrodicyclopenta[b,e]pyridin-8-yl)carbamoyl)-4-(1-hydroxyethyl)-2-(2-hydroxypropan-2-yl)thiazole-5-sulfonimidamide] is lower in pIC50: 6.00 to 6.70 for the first, 4.52 to 5.30 for the second.
